Assay results published in patent publication US9073880B2, “2-(2-phenylethenyl) 1,3-benzodiazepine derivatives useful for the treatment of cancer” (Yissum Research Development Company of the Hebrew …, priority 2010, dated 2015).

Assays:
Assay type in all cases: cell-based
[1] = system: human osteosarcoma Saos-2 cells; experiment: Cell proliferation, Saos-2 (Example 4); conditions: Saos-2, osteosarcoma, compound in 2-hydroxypropyl-β-cyclodextrin
Method: (§1) Human ovary cancer A2780 cells lines were seeded at a density of 5000 cells/well, human melanoma A375 cells were plated at a density of 2,500 cells/well, human colon carcinoma HCT15 cells were plated at a density of 3,000 cells/well, human prostate carcinoma PC3 cells were plated at a density of 1,500 cells/well, human breast carcinoma MCF7 cells were plated at a density of 5,000 cells/well, human breast carcinoma MDA MB 468 cells were plated at a density of 6,000 cells/well, human myeloma U266, RPMI8226 and CAG cells were plated at a density of 10,000 cells/well. All cells were plated in 96-well plates in 90 μl growth medium containing 10% FCS, 100 units/ml penicillin and 100 μg/ml streptomycin. Compound 3 was added a day later in […] of 1% DMSO in DDW to obtain final concentrations of 0, 0.1, 0.3, 1, 3, and 10 μM. The final concentration of DMSO (0.1% DMSO) was kept constant in all samples. Following exposure of the cells to compound 3 for 72 hours at 37° C., adhered cells were fixed in 0.5% gluteraldehyde in medium for 10 min, washed three times with DDW, once with 0.1M sodium borate buffer pH 8.5 and stained with 1% methylene blue dissolved in 0.1M borate buffer solution for 60 min. Excess dye was washed out and cell-bound dye was eluted with 200 μl/well of 0.1M HCl. The optical density values were read at 630 nm in ELISA plate reader. Non-adhered cells were exposed to WST-1 reagent for 5 hours following 72 hours treatment with the inhibitors, and optical density values were read at 630 nm in ELISA plate reader. The data was analyzed in Microsoft Excel, using the vehicle control as 100% proliferation. The assays were performed in triplicates. The values of IC50 were derived from the dose-dependent growth curves obtained.
(§2) Cell proliferation assay was performed as described in Example 2. […]

[2] = system: human glioblastoma U138MG cells; experiment: Cell proliferation, U138MG (Example 4); conditions: U138-MG, compound in 2-hydroxypropyl-β-cyclodextrin
Method: as §1, §2

[3] = system: human multiple myeloma MM1S cells; experiment: Cell proliferation, MM1S (Example 4); conditions: MM1.S, compound in 2-hydroxypropyl-β-cyclodextrin
Method: as §1
(§3) Cell proliferation assay was performed as described in Example 2. The following cell line were plated in 96-well plates in 90 μl growth medium containing 10% FCS, 100 units/ml penicillin and 100 μg/ml streptomycin: human ovary cancer A2780 cells (4500 cells/well), human melanoma A375 (1500 cells/well) and YUMAC (2500 cells/well) cells, human colon carcinoma HCT15 (3000 cells/well) and HCT116 (2000 cells/well) cells, human prostate carcinoma PC3 (3000 cells/well), PC3MM2 (3500 cells/well) and DU145 (300 cells/well) cells, human hepatocarcinoma HepG2 (3000 cells/well), human Ewing sarcoma SK-ES-1 (4,500 cells/well), human glioblastoma U138MG (2,000 cells/well), human breast cancer T47D (4000 cells/well) and MDA-MB-468 (6000 cells/well) cells, human small cell lung carcinoma NCI-H1975 (5000 cells/well) cells, human osteosarcoma Saos-2 (5000 cells/well) cells, human pancreatic cancer ASPC (2500 cells/well) cells, human bladder carcinoma T24P (1000 cells/well) cells, human gastric cancer NCI-N87 (5000 cells/well) cells, human lymphoma KARPAS (5,000 cells/well) cells, human leukemia K562 (5,000 cells/well) cells and human multiple myeloma MM1S (10,000 cells/well), U266 (10,000 cells/well) and CAG (5,000 cells/well). Compounds 2-5 and 7-8 were added a day later in 10 μl of 0.7% 2-hydroxypropyl-β-cyclodextrin to obtain final concentrations of 0, 0.1, 0.3, 1, 3 and 10 μM.
Compounds 2-5 and 7-8 of the present invention were tested for their inhibitory potential in cell proliferation assay. Human ovary cancer A2780 cells, human melanoma A375 and YUMAC cells, human colon carcinoma HCT15 and HCT116 cells, human prostate carcinoma PC3, PC3MM2 and DU145 cells, human hepatocarcinoma HepG2 cells, human Ewing sarcoma SK-ES-1 cells, human glioblastoma U138MG cells, human breast cancer T47D and MDA-MB-468 cells, human small cell lung carcinoma NCI-H1975 cells, human osteosarcoma Saos-2 cells, human pancreatic cancer ASPC cells, human bladder cancer T24P cells, human gastric cancer cells, human lymphoma KARPAS cells, human leukemia K562 cells, and human multiple myeloma MM1S, CAG and U266 cells, were exposed to increasing concentrations of compounds 2-5 and 7-8. […]

[4] = system: human melanoma YUMAC cells; experiment: Cell proliferation, YUMAC (Example 4); conditions: compound in 2-hydroxypropyl-β-cyclodextrin
Method: as §1, §3
(§4) Compounds 2-5 and 7-8 of the present invention were tested for their inhibitory potential in cell proliferation assay. […]

[5] = system: human pancreatic cancer ASPC cells; experiment: Cell proliferation, ASPC (Example 4); conditions: compound in 2-hydroxypropyl-β-cyclodextrin
Method: as §1, §3, §4

human NCI-H1975 cells = experiment: Cell proliferation, NCI-H1975 (Example 4); conditions: NCI-H1975, SCLC, compound in 2-hydroxypropyl-β-cyclodextrin
Method: as §1, §2

[6] = system: human hepatocarcinoma HepG2 cells; experiment: Cell proliferation, HepG2 (Example 4); conditions: compound in 2-hydroxypropyl-β-cyclodextrin
Method: as §1, §2

[7] = system: Human ovary cancer A2780 cells; experiment: Cell proliferation, A2780 (Example 4); conditions: compound in 2-hydroxypropyl-β-cyclodextrin
Method: as §1, §2

[8] = system: human Ewing sarcoma SK-ES-1 cells; experiment: Cell proliferation, SK-ES-1 (Example 4); conditions: SK-ES1, SK-ES-1, Ewing sarcoma, compound in 2-hydroxypropyl-β-cyclodextrin
Method: as §1, §2

[9] = system: human breast cancer T47D cells; experiment: Cell proliferation, T47D (Example 4); conditions: compound in 2-hydroxypropyl-β-cyclodextrin
Method: as §1, §2

[10] = system: human leukemia K562 cells; experiment: Cell proliferation, K562 (Example 4); conditions: compound in 2-hydroxypropyl-β-cyclodextrin
Method: as §1, §3, §4

With `O=c1c(O)cc2cnc(/C=C/c3cc(O)c(O)c(Br)c3)sc-2c1O` [Compound 3] the IC50 [1] was 3100 nM, the IC50 [2] was 300 nM and the IC50 [3] was 500 nM. For the same compound, the IC50 [4] was 300 nM, the IC50 [5] was 13100 nM and the IC50 (human NCI-H1975 cells) was 1000 nM. The IC50 [6] was 900 nM, the IC50 [7] was 400 nM and the IC50 [8] was 300 nM. It also gave an IC50 [9] of 1500 nM and an IC50 [10] of 500 nM.

With `O=c1c(O)cc2cnc(/C=C/c3ccc(O)c(O)c3Br)sc-2c1O` [Compound 5] the IC50 [1] was 2800 nM, the IC50 [2] was 300 nM and the IC50 [3] was 600 nM. It also gave an IC50 [4] of 200 nM, an IC50 [5] of 8200 nM and an IC50 (human NCI-H1975 cells) of 800 nM. The IC50 [6] was 1600 nM, the IC50 [7] was 400 nM and the IC50 [8] was 600 nM. For the same compound, the IC50 [9] was 1800 nM and the IC50 [10] was 500 nM.
